Measured values from PubChem BioAssay (NCI).
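1) Cells in 96-well plates. 2) Compound, 48 h, 5 concentrations. 3) Linear interpolation between surrounding doses. 4) Unreached endpoint = highest concentration. TGI is the concentration that stops growth completely.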

Assays:
Test in all cases: NCI-60 cell line screen, 48 h
NCI-H522 lung = test system: NCI-H522 lung
HL-60(TB) leukemia = test system: HL-60(TB) leukemia
KM20L2 colon = test system: KM20L2 colon
SNB-78 CNS = test system: SNB-78 CNS
IGROV1 ovarian = test system: IGROV1 ovarian
MALME-3M melanoma = test system: MALME-3M melanoma
A549 NSCLC = test system: A549 NSCLC
HOP-62 NSCLC = test system: HOP-62 NSCLC
U251 CNS = test system: U251 CNS
DMS 114 small cell lung = test system: DMS 114 small cell lung
SF-295 CNS = test system: SF-295 CNS
DMS 273 small cell lung = test system: DMS 273 small cell lung

SMILES | TGI (NCI-H522 lung) [µM] | TGI (HL-60(TB) leukemia) [µM] | TGI (KM20L2 colon) [µM] | TGI (SNB-78 CNS) [µM] | TGI (IGROV1 ovarian) [µM] | TGI (MALME-3M melanoma) [µM] | TGI (A549 NSCLC) [µM] | TGI (HOP-62 NSCLC) [µM] | TGI (U251 CNS) [µM] | TGI (DMS 114 small cell lung) [µM] | TGI (SF-295 CNS) [µM] | TGI (DMS 273 small cell lung) [µM]
[N-]=[N+]=C1C(=O)C2CC3CC1CC2C3 (stereo not given) | > 100 | > 100 | > 100 | > 100 | > 100 | > 100 | > 100 | > 100 | > 100 | > 100 | > 100 | > 100
C/C=C(\C)C(=O)OC1C2C(C)=CC(=O)C(O)C2(C)C2C3(O)OCC24C1OC(=O)C(OC(C)=O)C4C(C)C3O (stereo not given) | – | 0.808 | 0.795 | 0.141 | 0.16 | – | 0.648 | 0.0415 | 0.0407 | 0.0409 | 0.0959 | 0.0382
CSc1nc2nccnc2c(=O)[nH]1 | > 100 | > 100 | > 100 | – | > 100 | > 100 | > 100 | > 100 | > 100 | > 100 | > 100 | > 100
CC1=C(C(=O)O)N2C(=O)[C@@H](NC(=O)C(c3ccccc3)N3CSC(=S)N(C(C)C)C3)C2SC1 (stereo not given in full) | 66.6 | > 100 | > 100 | > 100 | > 100 | > 100 | – | > 100 | > 100 | – | > 100 | > 100
CC(C)(Oc1ccc2c(=O)cc(-c3ccc(Cl)cc3)oc2c1)C(=O)Nc1c(Cl)cccc1Cl | > 100 | > 100 | > 100 | > 100 | > 100 | > 100 | > 100 | > 100 | > 100 | > 100 | > 100 | > 100
CC1=C(O)C(=O)C2C(=O)C1C(C)C2c1ccccc1 (stereo not given) | > 100 | – | – | > 100 | > 100 | > 100 | > 100 | > 100 | > 100 | – | > 100 | > 100
N#CC12CC(C=O)=C(N)C1(C#N)CC(C=O)=C2N (stereo not given) | > 100 | > 100 | – | – | > 100 | > 100 | > 100 | > 100 | > 100 | – | > 100 | –
CCc1cc2c(cc1C(=O)CCC(=O)O)CC1(C2)Cc2cc(CC)c(C(=O)CCC(=O)O)cc2C1 | > 100 | > 100 | – | – | > 100 | > 100 | > 100 | > 100 | > 100 | – | > 100 | –
CCOC(=O)C1=NN(c2ccc(C)cc2)C2(c3ccccc3)C=C(c3ccccc3)N(C)CCN12 (stereo not given) | > 100 | > 100 | – | – | > 100 | > 100 | > 100 | > 100 | > 100 | – | > 100 | –
NS(=O)(=O)c1ccc(N=Nc2ccc(O)cc2)cc1 | > 100 | > 100 | – | – | > 100 | > 100 | > 100 | > 100 | > 100 | – | > 100 | –
COC(=O)[C@H](Cc1ccccc1)NC(=O)OCC1OC(n2cc(C)c(=O)[nH]c2=O)CC1N=[N+]=[N-] (stereo not given in full) | > 100 | > 100 | – | – | > 100 | > 100 | > 100 | > 100 | > 100 | – | > 100 | –
CC(C)(C)OC(=O)NCC(c1c[nH]c2cc(Br)ccc12)c1c[nH]c2cc(Br)ccc12 | 32.7 | 64.2 | – | – | 29.4 | 31.7 | 44.7 | 33.2 | 31 | – | 36.2 | –
CCOC(=O)NC(=O)c1cn(CCN(CCO)C(=O)NCCCCCCNC(=O)N(CCO)CCn2cc(C(=O)NC(=O)OCC)c(=O)[nH]c2=O)c(=O)[nH]c1=O | > 100 | > 100 | > 100 | > 100 | > 100 | > 100 | > 100 | > 100 | > 100 | > 100 | > 100 | > 100
COc1c(O)cc2c(c1O)C(=O)C(Cc1ccc(O)cc1)CO2 (stereo not given) | > 100 | > 100 | – | – | > 100 | > 100 | > 100 | > 100 | > 100 | – | > 100 | –
COc1nc2ccc(Cl)c(C(O)c3ccccc3)c2nc1OC (stereo not given) | 37.8 | 52.5 | – | – | > 100 | > 100 | 78.6 | 38.6 | 88 | – | 44.8 | –
O=C([O-])c1ccccc1Nc1ccccc1C(=O)[O-].[OH3+].[Zn+2] | 18.2 | 49.4 | > 100 | > 87.1 | 18.8 | 50.5 | > 100 | > 58.5 | 33 | 37.4 | 32.2 | 29.2
Cc1ccc(C(=O)C2C=C(c3ccc(C)cc3)SC3C=CCC32)cc1 (stereo not given) | 29.6 | > 100 | – | – | 40.1 | 34.1 | 57.1 | 45.2 | 32.5 | – | 39.9 | –
N/C(=C\c1ccc(/C=C(\NC(=O)c2ccccc2)c2nc3c([nH]2)C(=O)c2ccccc2C3=O)cc1)c1nc2c([nH]1)C(=O)c1ccccc1C2=O | 29.8 | 38.3 | 36.2 | 63.1 | 40.3 | – | 36.5 | – | 33.6 | 22.9 | 30.9 | 42.1
CC12CP(=O)(O)CC1C2(Cl)Cl (stereo not given) | > 100 | > 100 | – | – | > 100 | > 100 | > 100 | > 100 | > 100 | – | > 100 | –
CC1(C)CC[C@]2(C)[C@@H](O)C[C@]3(C)C(=CC[C@@H]4[C@@]5(C)CC[C@H](O)C(C)(C)[C@@H]5CC[C@]43C)[C@@H]2C1 | > 100 | > 100 | – | – | > 100 | 86.9 | > 100 | > 100 | > 100 | – | > 100 | –
C=CC(=C)CCC(Br)C(C)(C)Br (stereo not given) | 30.6 | 55.1 | – | – | > 100 | > 100 | > 100 | > 100 | > 100 | – | > 100 | –
CN1/C(=C\N=O)C(C)(C)N(O)C1(C)C | > 100 | > 100 | – | – | > 100 | > 100 | > 100 | > 100 | > 100 | – | > 100 | –
COC(=O)CC(C(C(=O)OCc1ccccc1)C(C)O)N1C(=O)OCC1c1ccccc1 (stereo not given) | – | > 100 | > 100 | – | > 100 | > 100 | > 100 | > 100 | > 100 | > 100 | > 100 | > 100
CN(CCO)CCC1COc2ccccc2O1 (stereo not given) | > 10 | > 10 | – | – | > 10 | > 10 | > 10 | > 10 | > 10 | – | > 10 | –
